Experimental findings from ChEMBL document CHEMBL5576053, “Nonclassical Zwitterions as a Design Principle to Reduce Lipophilicity without Impacting Permeability” (J Med Chem, 2024) are described below.

Common to all, as to assay type: physicochemical
Series [1] can be described thus: Basic ionization constant, pKa of the compound.
A short description of series [2]: Acidic ionization constant, pKa of the compound.
Series [3] can be described thus: 1-octanol/water partition coefficient, acidic logP of compound by shake flask method.
A short description of series [4]: Ionization constant, pKa of compound at pH 5 to 10.
Series [5] can be described thus: Ionization constant, pKa of compound at pH 1 to 5.
A short description of series [6]: Acidic ionization constant, pKa of the compound by potentiometric titration analysis.
Series [7] can be described thus: Ionization constant, pKa of compound.

As usually defined, the pKa is the negative logarithm of the acid dissociation constant. A high value points to a weaker acid or stronger base. `O=C(NC1CCCCC1)c1ncccc1O` yielded a pKa in series [1] of 2.2.

Turning to `CCOC(=O)CNC(=O)c1ncccc1O`, in series [1], the pKa was 2.2.

Molecule `CNC(=O)c1ccccc1O` yielded a pKa in series [2] of 8.

For the molecule `CCCC1C(=O)N2C(N(C)C)=Nc3ccc(C)cc3N2C1=O` (stereo unspecified) [APAZONE], in series [1], the pKa was less than 2.

As for `O=C(NC1CCCCC1)c1nccc(Cl)c1O`, the pKa in series [1] is less than 2; in series [2], 6.8.

As usually defined, the logP is a log measure of how a compound divides between an organic and an aqueous phase. Higher therefore signals a more lipophilic compound. In series [3], `CN1C(C(=O)Nc2ccccn2)=C(O)c2ccccc2S1(=O)=O` [PIROXICAM] showed a log partition coefficient (logP) of 4.

Regarding `CCc1cc(/C(C)=N/OCc2ccc(C3CCCCC3)c(C(F)(F)F)c2)ccc1CN1CC(C(=O)O)C1` [SIPONIMOD], the logP in series [3] is 8.9.

In series [3], `N[C@@H](Cc1cc(I)c(Oc2ccc(O)c(I)c2)c(I)c1)C(=O)O` [LIOTHYRONINE] showed a log partition coefficient (logP) of 4.1.

On to `CN1C(C(=O)Nc2ccccn2)=C(O)c2sc(Cl)cc2S1(=O)=O` [LORNOXICAM], for which the pKa in series [1] is less than 2.

With `Cc1cc(NC(=O)C2=C(O)c3ccccc3S(=O)(=O)N2C)no1` [ISOXICAM], the pKa in series [1] is less than 2.

`N[C@@H](Cc1cc(I)c(Oc2cc(I)c(O)c(I)c2)c(I)c1)C(=O)O` [LEVOTHYROXINE] had a logP in series [3] of 5.4.

For `CC(C)CCNC(=O)c1ncccc1O`, the pKa is 2.3 in series [1], 7.85 in series [4], 2.4 in series [5] and 7.9 in series [2].

As to `COc1cccc(CNC(=O)c2ncccc2OC)c1`, in series [1], the pKa was 2.9.

In the case of `NC(=O)c1ncn([C@@H]2O[C@H](CO)[C@@H](O)[C@H]2O)c1O` [MIZORIBINE], in series [6], the pKa amounted to 6.5.

On to `CC(C)(C)NC(=O)c1ccccn1`, for which the pKa in series [1] is 2.1.

As to `COc1ccnc(C(=O)NC2CCCCC2)c1O`, the pKa was determined as 2.3 in series [1] and 9.1 in series [2].

On to `Cc1ccnc(C(=O)NC2CCCCC2)c1O`, for which the pKa in series [1] is less than 2; in series [2], 8.5.

On to `CN1C(C(=O)Nc2nccs2)=C(O)c2ccccc2S1(=O)=O` [SUDOXICAM], for which the pKa in series [1] is less than 2; in series [2], 3.1.

In turn, `Cc1ncc(CO)c(CO)c1O` [PYRIDOXINE] came in with a pKa in series [7] of 5.
